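Results reflect a 48-hour exposure of cells in 96-well plates to compound at five concentrations. Here, GI50 denotes the concentration required for 50% inhibition of growth. At the TGI there is no net growth.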
Tests used:
Experiment in all cases: NCI tumour cell line growth inhibition, 48 h
[1] = tested on: BT-549 breast
[2] = tested on: CCRF-CEM leukemia
[3] = tested on: PC-3 prostate
[4] = tested on: SNB-75 CNS
[5] = tested on: SR leukemia
[6] = tested on: T-47D breast
[7] = tested on: COLO 205 colon
[8] = tested on: IGROV1 ovarian
[9] = tested on: SF-268 CNS
[10] = tested on: HOP-92 NSCLC
[11] = tested on: MALME-3M melanoma
[12] = tested on: MCF7 breast
[13] = tested on: MDA-MB-231 breast
[14] = tested on: NCI/ADR-RES ovarian

Structure (SMILES)	GI50 [1]	TGI [1]	GI50 [2]	TGI [2]	GI50 [3]	TGI [3]	GI50 [4]	TGI [4]	GI50 [5]	TGI [5]	GI50 [6]	TGI [6]	TGI [7]	TGI [8]	TGI [9]	TGI [10]	TGI [11]	TGI [12]	TGI [13]	TGI [14]
Cc1ccc(C2CC(c3cccc(Nc4ccncc4)c3)=NN2c2ccccc2)cc1 (stereo unspecified)	1.81 µM	3.37 µM	3.95 µM	77.9 µM	1.59 µM	3.24 µM	1.32 µM	2.88 µM	2.07 µM	5.73 µM	2.02 µM	4.85 µM	–	–	–	–	–	–	–	–
O=c1nc2sc3ccc4ccccc4c3n2[nH]c1=O	–	–	–	> 100 µM	–	–	–	> 100 µM	–	–	–	–	> 100 µM	> 100 µM	> 100 µM	–	–	–	–	–
COc1cc2c(c(OC(C)=O)c1OC(C)=O)-c1ccc(SC)c(=O)cc1C(NC(C)=O)CC2 (stereo unspecified)	–	–	–	35.7 µM	–	–	–	–	–	> 100 µM	–	–	3.13 µM	> 100 µM	> 100 µM	7.29 µM	> 100 µM	–	–	–
CCOC(=O)NC(Nc1ccc(Cl)cn1)(C(F)(F)F)C(F)(F)F	–	> 100 µM	–	> 100 µM	–	–	–	> 100 µM	–	> 100 µM	–	> 100 µM	–	–	> 100 µM	–	> 100 µM	> 100 µM	> 100 µM	–
CC1=CC(C)(C)Nc2ccc(CSc3ccccc3)cc21	–	> 100 µM	–	–	–	89.8 µM	–	51.3 µM	–	–	–	–	52.8 µM	> 100 µM	> 100 µM	> 100 µM	47.5 µM	60.9 µM	94.1 µM	> 100 µM
N#CCCN(CCC#N)c1ccc(/C=C2\N=C(c3cc([N+](=O)[O-])ccc3Cl)N(NC(=O)CC(=O)Nc3ccccc3Cl)C2=O)cc1	–	–	–	> 100 µM	–	–	–	–	–	> 100 µM	–	–	> 100 µM	> 100 µM	> 100 µM	> 100 µM	> 100 µM	–	–	–
CC(C)CN(CC#N)CC(C)C	–	> 100 µM	–	–	–	> 100 µM	–	> 100 µM	–	–	–	> 100 µM	> 100 µM	> 100 µM	> 100 µM	> 100 µM	> 100 µM	> 100 µM	> 100 µM	> 100 µM
CCCCCCCCCCCCCCCC(=O)OC1C(O)C(CO)OC(OC)C1NC(=O)N(CCCl)N=O (stereo unspecified)	–	–	–	–	–	–	–	24.6 µM	–	23.7 µM	–	–	40.4 µM	38.3 µM	15.5 µM	–	–	–	–	–
[O-][n+]1c(-c2ccccc2)c2nc3ccccc3nc2c2ccccc21	–	–	–	> 100 µM	–	–	–	99 µM	–	–	–	–	> 100 µM	> 100 µM	> 100 µM	> 100 µM	> 100 µM	–	–	–
O=[As](O)(O)c1ccc2nc3cc([As](=O)(O)O)ccc3nc2c1	–	> 100 µM	–	–	–	> 100 µM	–	> 100 µM	–	> 100 µM	–	> 100 µM	–	> 100 µM	> 100 µM	> 100 µM	> 100 µM	> 100 µM	> 100 µM	> 100 µM
C[C@]12CC[C@@H]3c4ccc(OCCN5CCCC5)cc4CC[C@H]3[C@@H]1CCC2=O	–	–	–	> 100 µM	–	> 100 µM	–	–	–	> 100 µM	–	> 100 µM	35.6 µM	40.7 µM	–	> 100 µM	–	48.2 µM	68.7 µM	> 100 µM
CC(=O)N/C(=C\c1ccc(/C=C(\NC(C)=O)C2=NC3C(=O)c4ccccc4C(=O)C3N2)cc1)C1=NC2C(=O)c3ccccc3C(=O)C2N1 (stereo unspecified)	–	–	–	86.4 µM	–	–	–	76.2 µM	–	–	–	–	> 100 µM	> 100 µM	> 100 µM	> 100 µM	–	–	–	–
CCN(CC)CCNc1ccc2nnn3c4ccccc4c(=O)c1c23	–	–	–	18.7 µM	–	–	–	11.9 µM	–	5.44 µM	–	–	16.2 µM	58.8 µM	19.2 µM	11.7 µM	16.1 µM	–	–	–
C[N+](C)([O-])Cc1cc(-c2ccccc2)ccc1O	–	> 100 µM	–	–	–	> 100 µM	–	> 100 µM	–	> 100 µM	–	> 100 µM	–	> 100 µM	> 100 µM	> 100 µM	> 100 µM	–	> 100 µM	> 100 µM
CCCOC1OC(CS(=O)(=O)O)C(O)C(O)C1O (stereo unspecified)	–	> 100 µM	–	> 100 µM	–	> 100 µM	–	> 100 µM	–	> 100 µM	–	> 100 µM	> 100 µM	> 100 µM	–	> 100 µM	> 100 µM	> 100 µM	–	> 100 µM
NC(N)=NC(N)=Nc1ccccc1 (tested in a mixture with another compound)	–	> 100 µM	–	> 100 µM	–	> 100 µM	–	> 100 µM	–	–	–	81.4 µM	> 100 µM	> 100 µM	> 100 µM	–	> 100 µM	> 100 µM	> 100 µM	> 100 µM
